Assay results taken from ChEMBL document CHEMBL1201862, “PubChem BioAssay data set” (2004).
Active and inactive are the calls of the source.

How the values were obtained:
[1] = biological target: Mucolipin-3 (Homo sapiens, UniProt Q8TDD5); assay: Dose response cell-based high-throughput screening assay for agonists of the transient receptor potential channel ML3 (TRPML3). [Related pubchem assays: 1526, 1424, 1448 ]; format: functional
[2] = biological target: Ion channel NompC (Danio rerio, UniProt Q7T1G6); assay: Fluorescence counterscreen assay for TRPML3 agonists: dose response cell-based high-throughput screening assay to identify agonists of the transient receptor potential channel N1 (TRPN1). [Related pubchem assays: 1526, 1424, 1448 ]; format: functional
[3] = biological target: NADPH oxidase 1 (Homo sapiens, UniProt Q9Y5S8); format: functional, cell-based;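 further: Cell-based assay with luminescence read-out, IC50 derived from inhibitor dose-response curves; intracellular ROS from endogenous NOX1 in intact HT29 colon cancer cells; potency of inhibitors that lower the ROS luminescence signal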
[4] = viability of uninfected HEp-2 cells – cell-based, HTS, cytotoxicity control for RSV inhibitor project, dose response (AID 2410); format: functional; conditions: human respiratory syncytial virus
[5] = system: HeLa; assay: Cytotoxicity counterscreen assay for transcriptional activators of heat shock protein 70 (Hsp70). [Related pubchem assays: 1203, 1252 ]; format: functional; conditions: Homo sapiens;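 further: cells exposed to compound for 16 hours before readout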
[6] = biological target: T1, Voltage-gated N-type calcium channel alpha-1B subunit/Amyloid beta A4 precursor protein-binding family A member 1 (Homo sapiens, UniProt Q00975+Q02410); format: protein assay
[7] = biological target: T1, Voltage-gated N-type calcium channel alpha-1B subunit/Amyloid beta A4 precursor protein-binding family A member 1; format: protein assay; remark: listed apart in the source
[8] = Trypanosoma cruzi growth suppression in host cells – NIH3T3 host cells, beta-gal luminescence, confirmation (AID 2044); format: functional, cell-based;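 further: intracellular parasites grown in NIH/3T3 mouse fibroblasts as host cells; luminescent beta-galactosidase reporter signal from transgenic T. cruzi replicating inside host cells; inhibitors lower the luminescence signal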
[9] = NIH3T3 cell viability loss – ATP luminescence, mouse fibroblasts, counter-screen, dose response (AID 2010); format: functional, cell-based;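 further: cells exposed to compound for about 90 hours before reading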
[10] = biological target: Heat shock protein HSP 90-alpha (Homo sapiens, UniProt P07900); format: functional, organism-based
[11] = system: INS1; assay: INS-1E survival protection against cytokine death – cell-based, luminescence, retest, dose response (AID 449756); format: functional; conditions: Rattus norvegicus;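 further: cell death triggered by IL-1 beta plus TNF-alpha plus IFN-gamma mixture; protective hits raise ATP signal compared with cytokine alone wells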
[12] = biological target: Sphingosine 1-phosphate receptor 2 (Homo sapiens, UniProt O95136); assay: Dose Response Cell Based Assay for Agonists of the S1P2 Receptor of Purchased Analogues. [Related pubchem assays: 729, 843, 854, 736 ]; format: functional
[13] = biological target: 5-hydroxytryptamine receptor 1E (Homo sapiens, UniProt P28566); assay: Counterscreen assay for S1P3 antagonists: Dose response cell-based high throughput screening assay to identify antagonists of the 5-Hydroxytryptamine Receptor Subtype 1E (5HT1E). [Related pubchem assays: 1429, 485 ]; format: functional
[14] = viability of PTEN-deleted HCT116 cells – cell-based, HCT116 PTEN knockout, dose response (AID 1047); format: functional;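 further: HCT116 colon tumor cells with PTEN knocked out; cells exposed to compound for 60 hours before readout; potency for loss of cell viability measured by luminescence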
[15] = biological target: Sphingosine 1-phosphate receptor 3 (Homo sapiens, UniProt Q99500); assay: Dose response cell-based high throughput screening assay for antagonists of the Sphingosine 1-Phosphate Receptor 3 (S1P3). [Related pubchem assays: 1429, 485 ]; format: functional
[16] = viability of HCT116 lacking mutant beta-catenin – cell-based, human colon tumor, dose response (AID 1045); format: functional;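 further: HCT116 colon tumor cells with beta catenin knocked out; cells exposed to compound for 60 hours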
[17] = biological target: T2, Streptokinase A (Streptococcus pyogenes serotype M1, UniProt P10520); assay: Absorbance Microorganism-Based Dose Response Follow up to Identify Inhibitors of Streptokinase Expression. [Related pubchem assays: 1677 (Project Summary), 1915, 1914, 1902 (Retest at Dose), 1900 (Counter Screen), 1662 (Primary HTS)]; format: functional, Streptococcus pyogenes M1 GAS
T2 sequence (P10520 whole entry): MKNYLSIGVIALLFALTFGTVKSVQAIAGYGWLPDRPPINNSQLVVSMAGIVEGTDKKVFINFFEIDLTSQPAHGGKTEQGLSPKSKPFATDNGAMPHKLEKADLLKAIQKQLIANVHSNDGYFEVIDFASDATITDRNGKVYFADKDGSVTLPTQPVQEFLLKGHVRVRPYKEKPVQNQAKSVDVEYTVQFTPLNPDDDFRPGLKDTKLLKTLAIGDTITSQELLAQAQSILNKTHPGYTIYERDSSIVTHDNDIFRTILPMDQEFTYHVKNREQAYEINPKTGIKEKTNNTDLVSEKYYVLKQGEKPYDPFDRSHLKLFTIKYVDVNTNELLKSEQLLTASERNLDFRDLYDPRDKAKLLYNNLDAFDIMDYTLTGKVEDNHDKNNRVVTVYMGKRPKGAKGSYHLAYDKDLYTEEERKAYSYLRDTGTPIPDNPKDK

[18] = system: Streptococcus; assay: GAS bacterial viability reduction – luminescence, BacTiter-Glo, strain UMAA2166, counter-screen for streptokinase expression inhibitor project, dose response (AID 2477); format: functional, organism-based
[19] = biological target: T3, E3 ubiquitin-protein ligase XIAP (Homo sapiens, UniProt P98170); assay: Counter Screen using XIAP-Bir3 for Chemical Antagonists of Bir1/2 domains of IAP-family anti-apoptotic proteins. [Related pubchem assays (depositor defined):AID1018, AID1449, AID1514, AID1638, AID1749, AID1750, AID488957, AID488963]
[20] = biological target: T3, E3 ubiquitin-protein ligase XIAP; assay: small molecules displacing peptide from XIAP – biochemical, IAP family, fluorescence polarization (AID 1018); format: functional
[21] = biological target: T4, Mannose-6-phosphate isomerase (Homo sapiens, UniProt P34949); assay: MPI enzyme activity inhibition – biochemical, fluorescence intensity, coupled assay, primary screen (AID 1209)
T4 sequence (P34949 whole entry): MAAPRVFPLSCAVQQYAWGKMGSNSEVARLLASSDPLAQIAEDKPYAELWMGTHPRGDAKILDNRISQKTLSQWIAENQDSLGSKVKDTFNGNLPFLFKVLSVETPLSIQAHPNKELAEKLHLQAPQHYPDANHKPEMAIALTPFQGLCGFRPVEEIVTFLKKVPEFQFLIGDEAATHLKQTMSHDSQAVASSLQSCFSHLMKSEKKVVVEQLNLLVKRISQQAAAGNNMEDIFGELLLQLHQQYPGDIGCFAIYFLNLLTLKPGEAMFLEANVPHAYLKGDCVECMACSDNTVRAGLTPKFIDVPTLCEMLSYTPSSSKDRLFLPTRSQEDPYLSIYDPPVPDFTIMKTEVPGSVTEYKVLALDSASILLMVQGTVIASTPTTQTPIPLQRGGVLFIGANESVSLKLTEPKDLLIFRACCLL

[22] = biological target: T4, Mannose-6-phosphate isomerase; assay: MPI inhibition at elevated mannose 6-phosphate – biochemical, fluorescence intensity, high mannose 6-phosphate, primary screen (AID 1220)
[23] = biological target: T5, Leucine aminopeptidase (Plasmodium falciparum 3D7, UniProt Q8IL11); assay: P. falciparum M17LAP inhibitors, primary screen, biochemical, fluorogenic H-Leu-NHMec substrate, 1536-well (AID 1619); format: functional
T5 sequence (Q8IL11 whole entry): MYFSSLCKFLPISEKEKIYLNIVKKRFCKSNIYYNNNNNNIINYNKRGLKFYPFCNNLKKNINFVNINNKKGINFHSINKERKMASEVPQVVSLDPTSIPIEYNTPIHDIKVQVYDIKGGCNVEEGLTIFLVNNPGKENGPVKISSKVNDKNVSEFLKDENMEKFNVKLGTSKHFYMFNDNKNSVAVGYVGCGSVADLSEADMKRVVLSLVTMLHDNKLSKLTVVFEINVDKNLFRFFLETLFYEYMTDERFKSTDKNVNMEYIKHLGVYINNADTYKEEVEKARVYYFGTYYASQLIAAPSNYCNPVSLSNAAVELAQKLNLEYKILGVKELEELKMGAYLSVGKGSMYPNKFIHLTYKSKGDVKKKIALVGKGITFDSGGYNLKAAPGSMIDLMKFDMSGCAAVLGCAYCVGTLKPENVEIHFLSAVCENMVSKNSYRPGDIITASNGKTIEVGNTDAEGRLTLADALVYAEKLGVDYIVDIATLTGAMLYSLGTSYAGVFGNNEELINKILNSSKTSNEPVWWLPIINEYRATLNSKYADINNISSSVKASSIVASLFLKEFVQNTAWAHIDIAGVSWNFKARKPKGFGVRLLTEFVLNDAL

[24] = mitochondrial function rescue without frataxin homolog – Friedreich's ataxia, plus single-dose screen, dose response (AID 1465); format: functional;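 further: yeast depleted of Yfh1p frataxin homolog grown on glycerol needing respiration; WST-1 tetrazolium dye reduction as measure of cellular dehydrogenase metabolic activity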
[25] = biological target: T6, Aspartyl aminopeptidase (Plasmodium falciparum 3D7, UniProt Q8I2J3); assay: Counterscreen for inhibitors of M1 and M17 aminopeptidases: QFRET-based biochemical high throughput dose response assay for inhibitors of the Plasmodium falciparum M18 Aspartyl Aminopeptidase (PFM18AAP). [Related PubChem assays: 1619 (Screening assay (M17LAP inhibitors).), 1445 (Screening assay (M1AAP inhibitors).)]
T6 sequence (Q8I2J3 whole entry): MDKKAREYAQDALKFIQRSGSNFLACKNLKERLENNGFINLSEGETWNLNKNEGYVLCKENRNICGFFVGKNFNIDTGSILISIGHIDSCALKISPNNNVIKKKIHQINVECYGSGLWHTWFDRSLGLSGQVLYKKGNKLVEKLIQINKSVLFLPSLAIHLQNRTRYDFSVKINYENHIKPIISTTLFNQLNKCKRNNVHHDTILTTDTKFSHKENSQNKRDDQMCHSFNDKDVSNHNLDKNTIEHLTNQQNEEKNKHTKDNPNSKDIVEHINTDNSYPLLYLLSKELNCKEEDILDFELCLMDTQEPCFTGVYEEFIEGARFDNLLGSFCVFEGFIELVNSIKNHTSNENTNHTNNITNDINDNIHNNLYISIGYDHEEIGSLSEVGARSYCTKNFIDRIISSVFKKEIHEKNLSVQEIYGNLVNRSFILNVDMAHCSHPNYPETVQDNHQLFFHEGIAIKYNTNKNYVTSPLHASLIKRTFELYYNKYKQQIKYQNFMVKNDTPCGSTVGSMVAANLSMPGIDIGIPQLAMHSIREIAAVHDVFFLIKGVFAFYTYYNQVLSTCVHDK

[26] = biological target: T7, Aminopeptidase N (Plasmodium falciparum FcB1/Columbia, UniProt O96935); assay: malaria alanyl aminopeptidase activity blockers – biochemical, fluorogenic H-Leu-NHMec substrate, 1536-well (AID 1445); parameters: species or system Plasmodium falciparum 3D7, 3D7
T7 sequence (O96935 whole entry): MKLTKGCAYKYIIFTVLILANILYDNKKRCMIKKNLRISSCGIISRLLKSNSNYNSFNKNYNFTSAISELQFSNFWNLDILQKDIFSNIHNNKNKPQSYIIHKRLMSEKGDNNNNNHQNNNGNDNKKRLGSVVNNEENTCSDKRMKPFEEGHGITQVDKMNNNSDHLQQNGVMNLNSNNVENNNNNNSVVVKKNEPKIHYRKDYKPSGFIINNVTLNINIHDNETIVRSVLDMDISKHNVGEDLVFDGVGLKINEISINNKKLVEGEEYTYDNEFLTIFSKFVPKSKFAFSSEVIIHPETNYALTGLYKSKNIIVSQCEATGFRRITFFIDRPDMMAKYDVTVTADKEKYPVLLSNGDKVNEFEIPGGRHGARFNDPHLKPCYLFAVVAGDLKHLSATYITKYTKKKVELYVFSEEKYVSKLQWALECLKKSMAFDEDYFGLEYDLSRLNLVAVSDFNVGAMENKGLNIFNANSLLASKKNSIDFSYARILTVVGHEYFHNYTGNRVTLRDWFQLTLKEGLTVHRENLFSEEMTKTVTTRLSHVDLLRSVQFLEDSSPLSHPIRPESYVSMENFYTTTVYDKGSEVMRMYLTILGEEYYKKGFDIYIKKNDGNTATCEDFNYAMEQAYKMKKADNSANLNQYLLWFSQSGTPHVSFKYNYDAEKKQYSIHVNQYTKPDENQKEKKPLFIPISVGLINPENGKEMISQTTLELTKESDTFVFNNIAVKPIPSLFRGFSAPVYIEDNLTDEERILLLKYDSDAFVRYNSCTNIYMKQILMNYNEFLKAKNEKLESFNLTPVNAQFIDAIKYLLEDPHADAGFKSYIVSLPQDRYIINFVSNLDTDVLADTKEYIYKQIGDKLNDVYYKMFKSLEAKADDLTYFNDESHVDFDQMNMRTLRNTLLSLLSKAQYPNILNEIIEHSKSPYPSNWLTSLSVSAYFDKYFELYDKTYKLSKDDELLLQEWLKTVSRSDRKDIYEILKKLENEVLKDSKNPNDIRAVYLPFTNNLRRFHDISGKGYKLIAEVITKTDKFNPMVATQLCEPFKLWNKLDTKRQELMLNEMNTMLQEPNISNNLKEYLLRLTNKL

[27] = biological target: Procathepsin L (Homo sapiens, UniProt P07711); assay: CTSL1 protease inhibition – biochemical, QFRET, 1536-well, counter-screen for M1/M17 aminopeptidase inhibitor project, dose response (AID 2214)

T1 sequence (Q00975 whole entry): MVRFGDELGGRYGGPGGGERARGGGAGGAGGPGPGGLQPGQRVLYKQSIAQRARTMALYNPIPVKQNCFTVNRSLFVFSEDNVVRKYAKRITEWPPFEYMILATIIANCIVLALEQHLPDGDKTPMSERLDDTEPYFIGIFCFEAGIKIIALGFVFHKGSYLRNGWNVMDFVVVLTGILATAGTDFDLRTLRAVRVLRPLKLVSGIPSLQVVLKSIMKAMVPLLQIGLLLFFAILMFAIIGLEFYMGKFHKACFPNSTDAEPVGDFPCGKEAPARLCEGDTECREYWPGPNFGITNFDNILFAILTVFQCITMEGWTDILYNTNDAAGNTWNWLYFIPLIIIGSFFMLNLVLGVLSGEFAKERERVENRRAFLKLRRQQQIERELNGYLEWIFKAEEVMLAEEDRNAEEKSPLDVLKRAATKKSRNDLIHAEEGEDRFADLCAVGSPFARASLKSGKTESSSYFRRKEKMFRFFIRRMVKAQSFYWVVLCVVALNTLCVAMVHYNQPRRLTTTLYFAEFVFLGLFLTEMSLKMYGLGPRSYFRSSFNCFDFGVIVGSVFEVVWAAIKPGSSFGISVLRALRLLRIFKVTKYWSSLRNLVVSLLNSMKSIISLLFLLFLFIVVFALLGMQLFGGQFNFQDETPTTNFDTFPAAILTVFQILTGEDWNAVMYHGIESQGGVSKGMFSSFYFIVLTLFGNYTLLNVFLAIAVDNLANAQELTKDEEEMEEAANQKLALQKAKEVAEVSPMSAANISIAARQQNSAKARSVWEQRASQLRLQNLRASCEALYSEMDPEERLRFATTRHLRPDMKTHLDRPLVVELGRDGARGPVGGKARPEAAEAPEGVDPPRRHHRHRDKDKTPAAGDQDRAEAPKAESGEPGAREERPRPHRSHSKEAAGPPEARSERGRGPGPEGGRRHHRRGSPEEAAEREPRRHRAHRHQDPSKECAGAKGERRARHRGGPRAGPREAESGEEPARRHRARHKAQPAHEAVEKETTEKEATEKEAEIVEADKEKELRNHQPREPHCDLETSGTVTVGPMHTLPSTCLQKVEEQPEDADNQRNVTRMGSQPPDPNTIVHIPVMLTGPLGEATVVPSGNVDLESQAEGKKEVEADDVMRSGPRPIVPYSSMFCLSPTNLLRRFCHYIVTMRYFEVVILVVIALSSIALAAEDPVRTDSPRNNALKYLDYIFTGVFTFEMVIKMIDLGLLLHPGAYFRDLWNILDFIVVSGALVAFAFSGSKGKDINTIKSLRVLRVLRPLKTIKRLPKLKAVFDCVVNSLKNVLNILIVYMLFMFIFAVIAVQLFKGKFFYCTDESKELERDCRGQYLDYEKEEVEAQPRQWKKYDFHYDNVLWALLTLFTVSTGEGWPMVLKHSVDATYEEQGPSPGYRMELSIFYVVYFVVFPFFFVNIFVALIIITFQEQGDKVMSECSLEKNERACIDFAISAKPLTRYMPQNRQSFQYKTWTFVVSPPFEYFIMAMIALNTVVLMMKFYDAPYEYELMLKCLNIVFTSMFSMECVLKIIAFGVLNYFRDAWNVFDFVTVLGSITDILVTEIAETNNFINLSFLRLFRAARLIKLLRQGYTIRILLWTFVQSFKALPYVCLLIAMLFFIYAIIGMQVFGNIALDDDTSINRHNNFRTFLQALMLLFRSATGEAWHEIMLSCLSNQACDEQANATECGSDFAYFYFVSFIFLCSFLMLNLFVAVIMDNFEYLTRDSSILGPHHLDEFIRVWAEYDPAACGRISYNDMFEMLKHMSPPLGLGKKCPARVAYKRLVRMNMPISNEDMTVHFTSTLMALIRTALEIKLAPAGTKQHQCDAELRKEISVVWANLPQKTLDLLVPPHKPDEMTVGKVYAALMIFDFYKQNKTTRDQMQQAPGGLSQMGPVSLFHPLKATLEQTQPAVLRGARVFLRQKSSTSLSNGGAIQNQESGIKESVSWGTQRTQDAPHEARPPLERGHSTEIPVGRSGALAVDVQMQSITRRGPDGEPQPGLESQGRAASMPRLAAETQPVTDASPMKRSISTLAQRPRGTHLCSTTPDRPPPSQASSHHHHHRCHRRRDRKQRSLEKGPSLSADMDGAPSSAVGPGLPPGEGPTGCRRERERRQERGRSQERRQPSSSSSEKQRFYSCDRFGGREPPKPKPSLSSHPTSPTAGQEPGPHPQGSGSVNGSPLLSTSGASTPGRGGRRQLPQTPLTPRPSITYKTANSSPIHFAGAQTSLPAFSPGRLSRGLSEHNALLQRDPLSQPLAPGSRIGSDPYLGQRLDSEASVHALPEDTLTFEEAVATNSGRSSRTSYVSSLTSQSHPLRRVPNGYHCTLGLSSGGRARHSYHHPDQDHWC
T1 sequence (Q02410 whole entry): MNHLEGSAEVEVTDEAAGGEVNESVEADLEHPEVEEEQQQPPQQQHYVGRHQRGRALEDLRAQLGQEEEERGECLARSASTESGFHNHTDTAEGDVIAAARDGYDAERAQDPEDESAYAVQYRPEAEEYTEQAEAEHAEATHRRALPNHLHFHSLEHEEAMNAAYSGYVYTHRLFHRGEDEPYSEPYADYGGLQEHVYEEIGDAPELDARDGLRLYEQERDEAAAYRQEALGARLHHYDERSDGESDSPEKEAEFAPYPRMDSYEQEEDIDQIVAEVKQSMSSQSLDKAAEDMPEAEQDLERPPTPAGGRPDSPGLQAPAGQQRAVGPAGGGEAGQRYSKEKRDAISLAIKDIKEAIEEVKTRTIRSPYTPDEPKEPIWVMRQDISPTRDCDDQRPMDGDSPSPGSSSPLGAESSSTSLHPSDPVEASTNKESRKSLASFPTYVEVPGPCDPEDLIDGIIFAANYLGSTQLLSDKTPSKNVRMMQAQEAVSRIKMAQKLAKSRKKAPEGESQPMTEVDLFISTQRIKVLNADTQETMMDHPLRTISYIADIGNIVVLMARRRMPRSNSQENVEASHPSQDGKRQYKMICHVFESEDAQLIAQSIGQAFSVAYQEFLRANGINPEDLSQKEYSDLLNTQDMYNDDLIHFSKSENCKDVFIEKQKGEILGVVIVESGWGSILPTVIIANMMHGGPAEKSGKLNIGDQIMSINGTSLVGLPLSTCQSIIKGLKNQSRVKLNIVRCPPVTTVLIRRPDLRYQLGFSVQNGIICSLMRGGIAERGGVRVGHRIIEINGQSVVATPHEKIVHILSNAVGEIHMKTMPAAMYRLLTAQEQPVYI
T3 sequence (P98170 whole entry): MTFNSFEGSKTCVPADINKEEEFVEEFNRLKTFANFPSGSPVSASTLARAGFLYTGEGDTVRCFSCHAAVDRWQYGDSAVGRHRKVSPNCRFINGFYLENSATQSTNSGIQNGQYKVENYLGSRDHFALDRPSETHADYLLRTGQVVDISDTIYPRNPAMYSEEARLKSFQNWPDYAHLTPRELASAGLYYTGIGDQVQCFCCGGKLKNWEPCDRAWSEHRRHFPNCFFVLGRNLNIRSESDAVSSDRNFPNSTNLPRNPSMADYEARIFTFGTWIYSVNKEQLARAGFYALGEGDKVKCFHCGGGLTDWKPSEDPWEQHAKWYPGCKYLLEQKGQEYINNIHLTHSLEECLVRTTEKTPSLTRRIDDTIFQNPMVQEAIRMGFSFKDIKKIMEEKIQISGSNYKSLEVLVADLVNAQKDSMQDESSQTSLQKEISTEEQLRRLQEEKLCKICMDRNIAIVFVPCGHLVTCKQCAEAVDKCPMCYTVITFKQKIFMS
5-hydroxytryptamine receptor 1E, sequence (P28566 whole entry): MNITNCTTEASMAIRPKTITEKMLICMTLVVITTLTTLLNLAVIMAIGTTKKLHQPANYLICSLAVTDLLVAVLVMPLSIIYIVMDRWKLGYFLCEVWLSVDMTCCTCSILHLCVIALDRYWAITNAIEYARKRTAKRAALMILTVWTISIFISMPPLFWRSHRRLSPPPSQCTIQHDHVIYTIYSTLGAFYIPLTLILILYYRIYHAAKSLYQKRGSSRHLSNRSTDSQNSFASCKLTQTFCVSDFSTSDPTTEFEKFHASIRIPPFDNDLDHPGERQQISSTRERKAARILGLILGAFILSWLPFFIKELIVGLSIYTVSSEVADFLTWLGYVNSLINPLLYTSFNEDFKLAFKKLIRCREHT
NADPH oxidase 1, sequence (Q9Y5S8 whole entry): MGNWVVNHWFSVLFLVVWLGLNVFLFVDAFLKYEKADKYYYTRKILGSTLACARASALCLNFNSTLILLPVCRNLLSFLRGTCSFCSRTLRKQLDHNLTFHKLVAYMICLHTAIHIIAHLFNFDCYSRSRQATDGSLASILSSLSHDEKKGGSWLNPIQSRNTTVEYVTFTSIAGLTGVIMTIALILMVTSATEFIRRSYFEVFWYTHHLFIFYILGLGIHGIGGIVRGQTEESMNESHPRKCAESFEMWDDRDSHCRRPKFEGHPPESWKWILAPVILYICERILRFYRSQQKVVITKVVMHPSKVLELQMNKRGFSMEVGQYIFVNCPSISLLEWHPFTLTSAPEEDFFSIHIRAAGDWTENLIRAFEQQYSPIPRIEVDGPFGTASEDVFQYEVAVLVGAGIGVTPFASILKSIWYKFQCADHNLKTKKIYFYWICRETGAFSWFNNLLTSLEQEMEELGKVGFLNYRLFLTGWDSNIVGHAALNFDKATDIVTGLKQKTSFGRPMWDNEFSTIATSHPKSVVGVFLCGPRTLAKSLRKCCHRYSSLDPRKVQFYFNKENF
Sphingosine 1-phosphate receptor 2, sequence (O95136 whole entry): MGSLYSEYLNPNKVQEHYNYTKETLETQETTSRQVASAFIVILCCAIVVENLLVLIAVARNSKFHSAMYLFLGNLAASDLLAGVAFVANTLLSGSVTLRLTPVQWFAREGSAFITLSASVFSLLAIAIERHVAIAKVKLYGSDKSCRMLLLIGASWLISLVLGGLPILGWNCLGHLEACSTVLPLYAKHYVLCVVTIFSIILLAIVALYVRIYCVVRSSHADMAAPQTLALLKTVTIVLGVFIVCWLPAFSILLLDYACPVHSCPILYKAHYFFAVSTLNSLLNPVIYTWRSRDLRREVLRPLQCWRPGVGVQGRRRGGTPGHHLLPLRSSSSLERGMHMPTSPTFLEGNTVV

Cc1ccccc1S(=O)(=O)c1c(C)cc(C)n(C(C)C)c1=O
EC50 [1]: 2.44 µM (active)
EC50 [2]: > 29.9 µM (not active)

Clc1ccc2c(c1)Nc1ccccc1S2
IC50 [3]: 0.254 µM (active)

N#C/C(=C/c1ccc(N2CCCCCC2)o1)c1ccc(Cl)cc1
CC50 [4]: 16.9 µM (active)
CC50 [5]: > 99 µM (not active)
IC50 [6]: 4.77 µM (active)
IC50 [7]: > 50 µM (inactive)
EC50 [8]: 1.81 µM (active)
EC50 [9]: > 60 µM (inconclusive)
AC50 [10]: 20.4 µM (active)
AC50 [11]: 8.91 µM (active)

Cc1cc(C(=O)O)c(C)n1Cc1ccccc1
EC50 [12]: > 30 µM (not active)

O=C(OC(C(=O)Nc1cccc(C(F)(F)F)c1)c1ccccc1)C1CCCCC1 (centres undefined)
IC50 [13]: 11.2 µM (not active)
EC50 [14]: 118 µM (active)
IC50 [15]: 7.69 µM (active)
EC50 [16]: 518 µM (active)

CC(C)Oc1nc(-c2ccc(Cl)cc2)nc2ccccc12
EC50 [17]: 6.9 µM (active)
EC50 [18]: 51.2 µM (active)

O=C(CCN1C(=O)C2C3C=CC(C3)C2C1=O)N1CCN(c2ccccc2F)CC1 (centres undefined)
IC50 [19]: > 100 µM (inactive)
IC50 [20]: > 100 µM (not active)

CCN1C(=O)c2cccc3cccc1c23
IC50 [6]: 20.5 µM (active)
IC50 [21]: 32 µM (active)
IC50 [7]: > 50 µM (inactive)
IC50 [22]: 33.9 µM (active)

O=C(O)CN1C(=O)/C(=C\c2cn(CC(=O)N3CCOCC3)c3ccccc23)SC1=S
IC50 [23]: 13.1 µM (active)
EC50 [24]: > 100 µM (active)

O=C(NCc1cccc(F)c1)C1CCN(S(=O)(=O)Cc2ccccc2)CC1
IC50 [25]: > 73.5 µM (not active)
IC50 [26]: 1.71 µM (active)
IC50 [27]: > 59.6 µM (not active)
